Where two headings read alike, the source gives them in different places.
Legend:
[1] = system: Salmonella typhimurium TA98 and TA100; test: Reverse mutation test (Ames test), pre-incubation method; type: cell-based; conditions: strains TA98 and TA100; for Ames test S9 (−): absence of metabolic activation system (S9mix (−)); for Ames test S9 (+): presence of metabolic activation system (rat liver S9mix (+))
Experimental: The presence or absence of genotoxicity in the compounds of the present invention was evaluated by a reverse mutation test (Ames test) using bacteria. The test was performed by a pre-incubation method using two bacterial strains of Salmonella typhimurium TA98 and TA100, in the absence of a metabolic activation system (S9mix (−)) and in the presence of a metabolic activation system (S9mix (+)). The compounds were dissolved in dimethyl sulfoxide (DMSO), and thus test liquids were prepared. Regarding the negative control, the solvent DMSO was used. Regarding the positive control, 2-(2-furyl)-3-(5-nitro-2-furyl)acrylamide (AF-2) was used for S9mix (−), and 2-aminoanthracene (2-AA) was used for S9mix (+).
0.1 mL of a test liquid was introduced into a sterilized test tube, and then 0.5 mL of a 0.1 mol/L sodium phosphate buffer solution (pH 7.4) was added to the test tube in the case of S9mix (−), or 0.5 mL of rat liver S9mix was added to the test tube in the case of S9mix (+). Furthermore, 0.1 mL of a precultured test strain suspension was added to the test tube, and then the test strain was subjected to shaking culture for 20 minutes at 37° C. (preincubation). […] Subsequently, the content of the test tube was superposed on a minimum glucose agar medium plate and was spread evenly. The plate was cultured for 48 hours at 37° C. in a thermostat. After completion of culture, the number of reverse mutation colonies grown on the plate was measured using a colony counter. Regarding the determination, a case in which the number of reverse mutation colonies increased to twice or more of the number of colonies of the negative control, and concentration-dependency was recognized, was regarded as positive. […]

[2] = molecular target: human T-type calcium channels (human Cav3.2) (Homo sapiens (Human), UniProt O95180); test: Antagonistic activity against T-type calcium channels (Cav3.2), Fura2 intracellular calcium assay in HEK293 cells; type: cell-based
Chain of human T-type calcium channels (human Cav3.2) (O95180 whole entry): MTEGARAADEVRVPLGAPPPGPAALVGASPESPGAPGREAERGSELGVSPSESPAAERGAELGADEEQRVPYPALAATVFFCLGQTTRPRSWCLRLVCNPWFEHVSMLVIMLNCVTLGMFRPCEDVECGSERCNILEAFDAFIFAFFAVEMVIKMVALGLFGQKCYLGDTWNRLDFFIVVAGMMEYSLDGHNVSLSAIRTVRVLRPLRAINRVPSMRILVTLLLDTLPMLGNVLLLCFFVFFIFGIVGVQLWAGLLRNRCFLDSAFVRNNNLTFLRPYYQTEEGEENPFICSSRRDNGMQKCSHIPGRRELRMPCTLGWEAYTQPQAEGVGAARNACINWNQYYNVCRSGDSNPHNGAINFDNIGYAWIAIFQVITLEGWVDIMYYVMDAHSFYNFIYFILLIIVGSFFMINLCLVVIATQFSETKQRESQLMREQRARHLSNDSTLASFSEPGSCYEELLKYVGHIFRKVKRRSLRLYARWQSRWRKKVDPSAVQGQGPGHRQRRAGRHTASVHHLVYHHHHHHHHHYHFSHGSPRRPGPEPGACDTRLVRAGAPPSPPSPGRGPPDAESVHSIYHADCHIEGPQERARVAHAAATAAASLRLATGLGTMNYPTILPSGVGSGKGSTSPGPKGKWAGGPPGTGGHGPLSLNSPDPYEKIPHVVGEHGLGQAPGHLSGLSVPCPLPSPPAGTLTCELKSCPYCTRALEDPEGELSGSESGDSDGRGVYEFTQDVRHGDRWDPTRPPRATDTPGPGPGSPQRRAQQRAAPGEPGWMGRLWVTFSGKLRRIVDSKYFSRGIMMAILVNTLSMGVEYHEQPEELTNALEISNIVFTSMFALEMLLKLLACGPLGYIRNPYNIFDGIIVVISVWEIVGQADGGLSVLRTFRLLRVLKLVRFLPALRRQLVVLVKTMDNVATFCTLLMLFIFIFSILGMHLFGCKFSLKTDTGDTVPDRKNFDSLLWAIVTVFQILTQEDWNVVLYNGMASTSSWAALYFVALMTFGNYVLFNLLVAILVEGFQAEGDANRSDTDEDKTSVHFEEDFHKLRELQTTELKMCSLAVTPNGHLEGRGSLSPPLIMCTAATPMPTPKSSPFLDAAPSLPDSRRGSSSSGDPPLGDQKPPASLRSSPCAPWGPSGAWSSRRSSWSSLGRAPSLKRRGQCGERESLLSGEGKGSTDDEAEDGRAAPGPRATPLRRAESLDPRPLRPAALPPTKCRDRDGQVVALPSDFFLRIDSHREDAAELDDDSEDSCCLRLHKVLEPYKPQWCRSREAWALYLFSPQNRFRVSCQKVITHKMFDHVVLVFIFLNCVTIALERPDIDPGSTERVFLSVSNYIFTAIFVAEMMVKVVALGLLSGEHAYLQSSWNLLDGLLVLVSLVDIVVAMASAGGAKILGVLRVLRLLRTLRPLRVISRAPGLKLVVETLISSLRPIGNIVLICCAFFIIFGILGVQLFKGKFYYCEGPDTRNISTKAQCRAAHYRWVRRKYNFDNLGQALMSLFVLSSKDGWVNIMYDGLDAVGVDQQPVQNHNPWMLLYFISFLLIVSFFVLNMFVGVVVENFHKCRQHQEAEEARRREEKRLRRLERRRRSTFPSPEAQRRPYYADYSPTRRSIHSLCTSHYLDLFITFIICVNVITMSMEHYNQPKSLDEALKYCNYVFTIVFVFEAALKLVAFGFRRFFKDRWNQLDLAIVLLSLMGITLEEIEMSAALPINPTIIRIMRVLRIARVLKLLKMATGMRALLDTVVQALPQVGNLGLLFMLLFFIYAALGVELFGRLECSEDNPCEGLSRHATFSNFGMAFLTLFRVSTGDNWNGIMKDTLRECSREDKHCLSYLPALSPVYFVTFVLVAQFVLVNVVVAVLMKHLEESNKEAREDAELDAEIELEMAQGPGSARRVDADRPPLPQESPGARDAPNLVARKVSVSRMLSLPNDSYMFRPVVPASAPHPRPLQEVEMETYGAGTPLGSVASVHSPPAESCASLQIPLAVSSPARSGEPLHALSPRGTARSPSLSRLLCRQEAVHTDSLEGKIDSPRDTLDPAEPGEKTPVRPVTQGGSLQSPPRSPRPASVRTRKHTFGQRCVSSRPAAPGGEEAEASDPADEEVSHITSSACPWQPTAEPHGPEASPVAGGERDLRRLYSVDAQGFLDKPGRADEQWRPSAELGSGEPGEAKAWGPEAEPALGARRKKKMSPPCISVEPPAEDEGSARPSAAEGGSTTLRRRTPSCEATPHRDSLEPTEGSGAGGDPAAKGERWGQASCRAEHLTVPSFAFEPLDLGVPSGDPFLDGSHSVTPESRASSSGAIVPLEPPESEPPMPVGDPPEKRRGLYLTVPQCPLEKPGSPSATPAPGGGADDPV
Experimental: For representative compounds of the present invention, the antagonistic activity against T-type calcium channels (Cav3.2) was examined by the Test Examples described below. For the respective tests, human embryo kidney cells (HEK293 cells) in which human T-type calcium channels (human Cav3.2) were stably expressed were used.
The HEK293 cells having human Cav3.2 stably expressed therein were cultured at 37° C. in Alpha-MEM, to which 10% (v/v) fetal bovine serum (FBS), penicillin (100 U/mL), streptomycin (100 μg/mL), and G418 ([…]) had been added. The cells were suspended in the culture liquid and were inoculated onto a 96-well plate. Subsequently, the cells were cultured for 48 hours. The culture liquid was removed, and the liquid was changed to S-MEM, to which 5% (v/v) FBS, calcium chloride (0.5 mmol/L), L-glutamine (2 mmol/L), L-alanine (8.9 ng/mL), L-asparagine (13.2 ng/mL), L-aspartic acid (1.33 ng/mL), L-glutamic acid (14.7 ng/mL), glycine (7.5 ng/mL), L-proline (11.5 ng/mL, L-serine (10.5 ng/mL), penicillin (100 U/mL), and streptomycin (100 μg/mL) had been added. The cells were cultured for another 24 hours. The culture liquid was removed again, and the cells were washed with an assay buffer (140 mmol/L sodium chloride, 5 mmol/L potassium chloride, 0.5 mmol/L magnesium chloride, 0.5 mmol/L calcium chloride, 10 mmol/L glucose, 0.4 mmol/L magnesium sulfate, 10 mmol/L HEPES, and […] sulfinpyrazone, pH 7.4) that had been kept warm at 37° C. Subsequently, an assay buffer prepared by dissolving Fura2-AM, which is a fluorescent Ca^2+ indicator, to a concentration of 5 μM, was added to the cells, and the system was incubated for 30 minutes at 37° C. The assay buffer having Fura2 dissolved therein was removed, and the cells were washed with the assay buffer. Subsequently, an assay buffer prepared by adding a test compound was added to the cells, and the system was incubated for 15 minutes. The plate was mounted on a fluorescence analyzer (FLEX STATION II, Molecular Devices, LLC), and the baseline was measured for 20 seconds. Subsequently, any change in the intracellular calcium concentration that was induced when an assay buffer prepared by adding 100 mmol/L calcium chloride was added to the cells, was measured (excited at 340 nm or 380 nm, and detected at 510 nm). The fluorescence intensity ratios obtainable at the respective wavelengths were calculated.
Meanwhile, the test compound solution was prepared by dissolving each test compound in DMSO to a concentration of 10 mmol/L, and then adjusting the concentration with the assay buffer so as to obtain the set concentration. For the control solution, DMSO was used instead of a test compound.
The inhibitory activity level (%) of a test compound was calculated by subtracting the average value of the fluorescence intensity ratio for a period of 0 to 20 seconds after initiation of measurement, from the average value of the fluorescence intensity ratio for a period of 45 to 50 seconds after initiation of measurement, taking the value obtained using the control solution as the maximum activity of Cav3.2, and comparing this value with the activity in the presence of the test compound.
Calculation of IC50 Value:
The inhibitory activity of each test compound was measured at concentrations of […], and the IC50 value was calculated using the curve fitting formula (Model 08: sigmoidal inhibition curve) of ASSAY EXPLORER (Symyx Technologies, Inc.).
Average of RFU value obtained for 25 to 30 seconds after the addition of a […] assay buffer after treatment with the control solution (for 45 to 50 seconds after the initiation of measurement). The RFU in the formula represents the Relative Fluorescence Unit.

[3] = HEK293 cells stably expressing human Cav3.2, Fura2 fluorescence ratio after calcium chloride addition, read-out: IC50

Structure (SMILES)	Ames test S9 (−) [1]	Ames test S9 (+) [1]	IC50 [2]	IC50 [2, 3]
Cc1cccc2[nH]c(CC3CCN(CC(=O)NC(C)(C)C)CC3)nc12 [Control Compound 1, N-tert-Butyl-2-[4-(4-methyl-1H-benzimidazol-2-yl)methylpiperidin-1-yl]acetamide, reference compound]	Negative	Positive	–	–
COc1cccc2[nH]c(CC3CCN(CC(=O)NC(C)(C)C)CC3)nc12 [Control Compound 2, N-tert-Butyl-2-[4-(4-methoxy-1H-benzimidazol-2-yl)methylpiperidin-1-yl]acetamide, reference compound]	Negative	Positive	–	–
CC(C)(C)NC(=O)CN1CCC(Cc2nc3ccc4c(c3[nH]2)OCCO4)CC1.Cl.Cl [Control Compound 3, N-tert-Butyl-2-[4-(5,6-dihydro-1H-[1,4]dioxino[2,3-e]benzimidazol-2-yl)methylpiperidin-1-yl]acetamide dihydrochloride, reference compound]	Negative	Positive	–	–
CC(C)(C)NC(=O)CN1[C@@H]2CC[C@H]1C[C@H](CNC(=O)c1cc(F)cc(Cl)c1)C2 [Example 54]	Negative	Negative	20 nM	–
COc1ccc2[nH]c(C[C@@H]3C[C@H]4CC[C@@H](C3)N4CC(=O)NC(C)(C)C)nc2c1OC [Example 122]	–	–	–	138 nM
CC(C)(C)NC(=O)CN1[C@@H]2CC[C@H]1C[C@H](Cc1nc3c4c(ccc3[nH]1)OCCO4)C2 [Example 123, N-tert-Butyl-2-[(exo)-3-(5,6-dihydro-1H-[1,4]dioxino[2,3-e]benzimidazol-2-yl)methyl-8-azabicyclo[3.2.1]octan-8-yl]acetamide]	Negative	Negative	–	–
COc1cccc2[nH]c(C[C@@H]3C[C@H]4CC[C@@H](C3)N4CC(=O)NC(C)(C)C)nc12 [Example 124]	–	–	–	96 nM
CC(C)(C)CNC(=O)C[C@H]1C[C@H]2CC[C@@H](C1)N2CC(=O)NC(C)(C)C [Example 127, 2-[(endo)-8-(tert-Butylcarbamoyl)methyl-8-azabicyclo[3.2.1]octan-3-yl]-N-(2,2-dimethylpropyl) acetamide]	–	–	–	73 nM
CC(C)(C)NC(=O)CN1[C@@H]2CC[C@H]1C[C@@H](CC(=O)NC13CC4CC(CC(C4)C1)C3)C2 [Example 129, N-(Adamantan-1-yl)-2-[(endo)-8-(tert-butylcarbamoyl)methyl-8-azabicyclo[3.2.1]octan-3-yl]acetamide]	–	–	–	66 nM
CC(C)(C)NC(=O)CN1[C@@H]2CC[C@H]1C[C@@H](CC(=O)NC13CC4CC(CC1C4)C3)C2 [Example 131]	–	–	–	49 nM
CC(C)(C)NC(=O)CN1[C@@H]2CC[C@H]1C[C@@H](CNC(=O)C13CC4CC(CC(C4)C1)C3)C2 [Example 144, N-[(endo)-8-(tert-Butylcarbamoyl)methyl-8-azabicyclo[3.2.1]octan-3-yl]methyladamantane-1-carboxamide]	–	–	–	44 nM
COc1cccc2[nH]c(C[C@H]3C[C@H]4CC[C@@H](C3)N4CC(=O)NC(C)(C)C)nc12 [Example 145, N-tert-Butyl-2-[(endo)-3-(4-methoxy-1H-benzimidazol-2-yl)methyl-8-azabicyclo[3.2.1]octan-8-yl]acetamide]	Negative	Negative	–	98 nM
Cc1cccc2[nH]c(C[C@H]3C[C@H]4CC[C@@H](C3)N4CC(=O)NC(C)(C)C)nc12 [Example 147]	–	–	–	83 nM
CC(C)(C)NC(=O)CN1[C@@H]2CC[C@H]1C[C@@H](CC(=O)NC13CC4CC(CC(C4)O1)C3)C2.Cl [Example 152, 2-[(endo)-8-(tert-Butylcarbamoyl)methyl-8-azabicyclo[3.2.1]octan-3-yl]-N-(2-oxaadamantan-1-yl)acetamide hydrochloride]	Negative	Negative	–	–
COc1cc(F)c2nc(C[C@@H]3C[C@H]4CC[C@@H](C3)N4CC(=O)NC(C)(C)C)[nH]c2c1 [Example 154]	–	–	78 nM	–
COc1ccc2[nH]c(C[C@@H]3C[C@H]4CC[C@@H](C3)N4CC(=O)NC(C)(C)C)nc2c1OC [Example 155]	Negative	Negative	–	–
COc1ccc(OC)c2[nH]c(C[C@@H]3C[C@H]4CC[C@@H](C3)N4CC(=O)NC(C)(C)C)nc12 [Example 172]	Negative	Negative	–	–
Cc1cc(C(=O)NC[C@@H]2C[C@H]3CC[C@@H](C2)N3CC(=O)NC(C)(C)C)n(C)n1 [Example 174]	Negative	Negative	–	–

— patent US9856250B2, “Substituted tropane derivatives” (TOA EIYO LTD., priority 2014, dated 2018)
